Here are results for 8 compounds from ChEMBL document CHEMBL1150242, “Subinhibitory concentrations of antibiotics induce phenazine production in a marine Streptomyces sp” (2008).

In assay [1] the test system is Bacillus subtilis. Kind of assay: Antibacterial activity against Bacillus subtilis. It counts as functional.
Assay [2] concerns Ralstonia solanacearum. Kind of assay: Antibacterial activity against Ralstonia solanacearum. Format: functional, organism-based.
Assay [3] relates to Xanthomonas campestris. Kind of assay: Antibacterial activity against Xanthomonas campestris. Format: functional, organism-based.
Assay [4] relates to Escherichia coli. As to the kind of experiment: Antibacterial activity against Escherichia coli. Format: functional, organism-based.
The test system of assay [5] is Pseudomonas fluorescens. As to the kind of experiment: Antibacterial activity against Pseudomonas fluorescens. It counts as functional, organism-based.
In assay [6] the test system is Nakaseomyces glabratus. As to the kind of experiment: Antibacterial activity against Candida glabrata. Format: functional, organism-based.
Assay [7] relates to Mammaliicoccus lentus. As to the kind of experiment: Antibacterial activity against Staphylococcus lentus. It counts as functional.
Assay [8] concerns Pseudomonas syringae. As to the kind of experiment: Antibacterial activity against Pseudomonas syringae. Format: functional, organism-based.
The subject of assay [9] is Erwinia amylovora. As to the kind of experiment: Antibacterial activity against Erwinia amylovora. It counts as functional, organism-based.

Activity calls are given as the source filed them. The calls are words filed in the database; no cut-off is given here.

`COC(=O)C(c1cccc2nc3c(C(=O)O)cccc3nc12)C(O)CCCC(C)C` (stereo unspecified) [STREPTOPHENAZINE C]: the Activity in [1] is 15.6 µg/mL; in assay [7], 46.9 µg/mL. Also, the outcome in assay [2], in assay [3], in [4], in assay [5], in assay [6] and in [8] was inactive. Moreover, in [9], the result was inactive.

In [1], `COC(=O)c1cccc2nc3c(C(C(=O)OC)C(O)CCC(C)C)cccc3nc12` (stereo unspecified) [STREPTOPHENAZINE D] yielded an Activity of 62.5 µg/mL. Besides, the outcome in [6] was inactive.

In the case of `COC(=O)c1cccc2nc3c(C(C(=O)OC)C(O)CCCCC(C)C)cccc3nc12` (stereo unspecified) [STREPTOPHENAZINE F], the outcome in [1], in assay [2], in [3], in assay [4], in [5] and in assay [6] was inactive. The result in [8] and in [9] was inactive. This compound displayed an Activity in assay [7] of 62.5 µg/mL.

On to `CCCCCCC(O)C(C(=O)OC)c1cccc2nc3c(C(=O)OC)cccc3nc12` (stereo unspecified) [STREPTOPHENAZINE B], for which the outcome in assay [1], in assay [2], in [3], in assay [4], in assay [5] and in assay [6] was inactive. In addition, the outcome in [8] and in assay [9] was inactive. The Activity in [7] turned out to be 62.5 µg/mL.

On to `COC(=O)c1cccc2nc3c(C(C(=O)OC)C(O)CCCC(C)(C)O)cccc3nc12` (stereo unspecified) [STREPTOPHENAZINE H], for which the Activity in assay [1] was 15.6 µg/mL. Also, the outcome in assay [6] was inactive.

For `CCC(C)CCCC(O)C(C(=O)OC)c1cccc2nc3c(C(=O)OC)cccc3nc12` (stereo unspecified) [STREPTOPHENAZINE G], the outcome in assay [1], in assay [2], in [3], in assay [4], in assay [5] and in assay [6] was inactive. Moreover, the outcome in [8] and in assay [9] was inactive. In addition, the Activity in assay [7] worked out at 62.5 µg/mL.

In [1], `CCCCC(O)C(C(=O)OC)c1cccc2nc3c(C(=O)OC)cccc3nc12` (stereo unspecified) [STREPTOPHENAZINE E] returned an Activity of 62.5 µg/mL. Moreover, the outcome in [6] was inactive.

With `COC(=O)c1cccc2nc3c(C(C(=O)OC)C(O)CCCC(C)C)cccc3nc12` (stereo unspecified) [STREPTOPHENAZINE A], the Activity amounted to 46.9 µg/mL in assay [1] and 62.5 µg/mL in assay [7]. Also, the outcome in assay [2], in assay [3], in assay [4], in assay [5], in assay [6] and in [8] was inactive. In addition, in assay [9], the outcome was inactive.
